# Laboratory results as given in US11691969B2, “Pyridazinones as PARP7 inhibtors” (Ribon Therapeutics, Inc., priority 2019, dated 2023).
# Biological target: PARP7 (Homo sapiens (Human), UniProt Q7Z3E1)
# Test: TR-FRET assay: displacement of biotinylated Probe A from the TIPARP active site (Enzymatic Assay for Inhibition of PARP7)
# Format: binding
# Conditions: TIPARP 6 nM, Probe A 2 nM, 25° C.
# Description: Example A. Enzymatic Assay for Inhibition of PARP7
# Displacement of Probe A, a biotinylated probe binding to the TIPARP active site, was measured using a time-resolved fluorescence energy transfer (TR-FRET) assay. 20 nL of a dose response curve of each test compound was spotted in black 384-well polystyrene proxiplates (Perkin Elmer) using a Mosquito (TTP Labtech). Reactions were performed in a 8 μl volume by adding 6 μL of TIPARP and Probe A in assay buffer (20 mM HEPES pH=8, 100 mM NaCl, 0.1% bovine serum albumin, 2 mM DTT and 0.002% Tween20), incubating with test compound at 25° C. for 30 min, then adding 2 μL of ULight-anti 6×His and LANCE Eu-W1024 labeled streptavidin (Perkin Elmer). The final concentrations of TIPARP and Probe A were 6 nM and 2 nM, respectively. The final concentration of ULight-anti 6×His and LANCE Eu-W1024 labeled streptavidin were 4 nM and 0.25 nM, respectively. Reactions were incubated at 25° C. for an additional 30 min, then read on an Envision platereader equipped with a LANCE/DELFIA top mirror (Perkin Elmer) using excitation of 320 nm and emission of 615 nm and […] with a […]. The ratio of the 665/615 nm emission were calculated for each well to determine the amount of complex of TIPARP and Probe Ain each well. Control wells containing a negative control of 0.25% DMSO vehicle or a positive control of 100 μM 5-(5-(piperidin-4-yloxy)isoindolin-2-yl)-4-(trifluoromethyl)pyridazin-3(2H)-one were used to calculate the % inhibition as described below:
# [formula] where TRFcmpd is the TR-FRET ratio from the compound treated well, TRFmin is the TR-FRET ratio from the 5-(5-(piperidin-4-yloxy)isoindolin-2-yl)-4-(trifluoromethyl)pyridazin-3(2H)-one—treated positive control well and TRFmax is the TR-FRET ratio from the DMSO-treated negative control well. The % inhibition values were plotted as a function of compound concentration and the following 4-parameter fit was applied to derive the IC50 values:
# [formula] where top and bottom are normally allowed to float, but may be fixed at 100 or 0 respectively in a 3-parameter fit. The Hill Coefficient is normally allowed to float but may also be fixed at 1 in a 3-parameter fit. Y is the % inhibition and X is the compound concentration. Synthesis of Probe A
# Sequence of PARP7 (Q7Z3E1 whole entry): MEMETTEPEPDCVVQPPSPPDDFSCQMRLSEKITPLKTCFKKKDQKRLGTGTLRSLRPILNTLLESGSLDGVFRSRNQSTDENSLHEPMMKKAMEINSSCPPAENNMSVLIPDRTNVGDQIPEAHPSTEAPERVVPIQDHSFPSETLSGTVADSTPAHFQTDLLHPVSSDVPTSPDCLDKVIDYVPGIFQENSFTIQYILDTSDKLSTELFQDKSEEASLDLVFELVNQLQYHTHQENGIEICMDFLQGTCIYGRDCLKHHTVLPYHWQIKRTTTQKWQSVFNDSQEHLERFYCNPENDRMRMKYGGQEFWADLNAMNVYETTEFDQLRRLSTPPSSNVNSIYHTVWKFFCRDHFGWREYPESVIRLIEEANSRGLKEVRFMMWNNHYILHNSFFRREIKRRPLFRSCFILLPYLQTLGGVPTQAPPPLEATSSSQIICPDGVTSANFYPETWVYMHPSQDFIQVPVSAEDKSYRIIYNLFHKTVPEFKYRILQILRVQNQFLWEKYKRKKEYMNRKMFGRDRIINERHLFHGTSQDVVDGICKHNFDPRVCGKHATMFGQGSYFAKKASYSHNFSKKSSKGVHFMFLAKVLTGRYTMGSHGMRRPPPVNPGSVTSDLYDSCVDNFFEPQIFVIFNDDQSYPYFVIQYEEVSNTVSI
row,SMILES,IC50 [nM]
1,"COC[C@@H](CO[C@@H]1CCN(C2CCN(c3ccc(C#N)cn3)CC2)C1=O)Nc1cn[nH]c(=O)c1C(F)(F)F [Example 17B, 6-(4-((R)-3-((S)-3-methoxy-2-((6-oxo-5-(trifluoromethyl)-1,6-dihydropyridazin-4-yl)amino)propoxy)-2-oxopyrrolidin-1-yl)piperidin-1-yl)nicotinonitrile]",< 100
2,"C[C@@H](COC1CCN(C2CCN(c3cnc(C(F)(F)F)cn3)CC2)C1=O)Nc1cn[nH]c(=O)c1Br (stereo partly drawn) [Example 12, 4-bromo-5-(((2S)-1-((2-oxo-1-(1-(5-(trifluoromethyl)pyrazin-2-yl)piperidin-4-yl)pyrrolidin-3-yl)oxy)propan-2-yl)amino)pyridazin-3(2H)-one]",< 100
3,"C[C@@H](CO[C@@H]1C(=O)N(C2CCN(c3ncc(C(F)(F)F)cn3)CC2)CC1(C)C)Nc1cn[nH]c(=O)c1C(F)(F)F [Example 35A, 5-(((S)-1-(((S)-4,4-dimethyl-2-oxo-1-(1-(5-(trifluoromethyl)pyrimidin-2-yl)piperidin-4-yl)pyrrolidin-3-yl)oxy)propan-2-yl)amino)-4-(trifluoromethyl)pyridazin-3(2H)-one]",≥ 1000
4,"C[C@@H](CO[C@@H]1CCN(C2CCN(c3ncc(C(F)F)cn3)CC2)C1=O)Nc1cn[nH]c(=O)c1C(F)(F)F [Example 15B, 5-(((S)-1-(((R)-1-(1-(5-(difluoromethyl)pyrimidin-2-yl)piperidin-4-yl)-2-oxopyrrolidin-3-yl)oxy)propan-2-yl)amino)-4-(trifluoromethyl)pyridazin-3(2H)-one]",< 100
5,"C[C@H](CN[C@H]1CCN(C2CCN(c3ncc(C(F)(F)F)cn3)CC2)C1=O)Nc1cn[nH]c(=O)c1C(F)(F)F (single isomer, unassigned) [Example 26C]",≥ 1000
6,"O=C1[C@H](OC[C@H](CO)Nc2cn[nH]c(=O)c2C(F)(F)F)CCN1C1CCN(c2ncc(C(F)(F)F)cn2)CC1 [Example 63, 5-(((S)-1-hydroxy-3-(((R)-2-oxo-1-(1-(5-(trifluoromethyl)pyrimidin-2-yl)piperidin-4-yl)pyrrolidin-3-yl)oxy)propan-2-yl)amino)-4-(trifluoromethyl)pyridazin-3(2H)-one]",< 100
7,"C[C@@H](CN[C@@H]1CCN(C2CCN(c3ncc(C(F)(F)F)cn3)CC2)C1=O)Nc1cn[nH]c(=O)c1C(F)(F)F [Example 26B, 5-(((S)-1-(((R)-2-oxo-1-(1-(5-(trifluoromethyl)pyrimidin-2-yl)piperidin-4-yl)pyrrolidin-3-yl)amino)propan-2-yl)amino)-4-(trifluoromethyl)pyridazin-3(2H)-one]",< 100
8,N#Cc1ccc(N2CCC(N3CC[C@@H](OCCNc4cn[nH]c(=O)c4C(F)(F)F)C3=O)CC2)nc1 [Example 36A],< 100

# Now from value to compound:
row,IC50 [nM],SMILES
1,< 100,"C[C@@H](COCC(=O)N(C)C1CCN(c2ncc(C(F)(F)F)cn2)CC1)Oc1cn[nH]c(=O)c1Br [Example 28, (S)-2-(2-((5-bromo-6-oxo-1,6-dihydropyridazin-4-yl)oxy)propoxy)-N-methyl-N-(1-(5-(trifluoromethyl)pyrimidin-2-yl)piperidin-4-yl)acetamide]"
2,100 to 1000,"COC[C@@H](CO[C@H]1CCN(C2CCN(c3ncc(C(F)(F)F)cn3)CC2)C1=O)Oc1cn[nH]c(=O)c1C(F)(F)F [Example 51A, 5-(((S)-1-methoxy-3-(((S)-2-oxo-1-(1-(5-(trifluoromethyl)pyrimidin-2-yl)piperidin-4-yl)pyrrolidin-3-yl)oxy)propan-2-yl)oxy)-4-(trifluoromethyl)pyridazin-3(2H)-one]"
3,≥ 1000,"COC[C@@H](CO[C@H]1CCN(C2CCN(c3ncc(C(F)(F)F)cn3)CC2)C1=O)Oc1cn[nH]c(=O)c1Br [Example 56A, 4-Bromo-5-(((S)-1-methoxy-3-(((S)-2-oxo-1-(1-(5-(trifluoromethyl)pyrimidin-2-yl)piperidin-4-yl)pyrrolidin-3-yl)oxy)propan-2-yl)oxy)pyridazin-3(2H)-one]"
4,< 100,"C[C@@H](CO[C@@H]1CCN([C@@H]2CCN(c3ncc(C(F)(F)F)cn3)C[C@H]2F)C1=O)Nc1cn[nH]c(=O)c1C(F)(F)F (single isomer, unassigned) [Example 38A]"
